Patent US8124593B2, “Methods of treatment using sapacitabine” (Cyclacel Limited, priority 2007, dated 2012)

Experiments:
[1] = system: solid tumours or lymphomas; details: 14 days every 21 days, body surface area basis; cited from earlier work
[2] = system: poorly differentiated gastric adenocarcinoma; details: human xenografts; cited from earlier work
[3] = system: advanced leukemias or myelodysplastic syndromes; assay: Phase I study, b.i.d. x 7 days orally every 21 days; type: in vivo
Procedure: The Phase I study was conducted at M.D. Anderson Cancer Center (UTMDACC) in Houston, Tex. The primary objective was to define the MTD of a dosing schedule, b.i.d.×7 days orally every 21 days.
Eligible patients had relapsed/refractory leukemias or MDS, or untreated disease if not willing to proceed with conventional systemic chemotherapy, adequate organ functions and performance status of 0-2. At least 3 patients were enrolled at each dose level. The MTD was the highest dose level at which ≦ 2/6 patients experienced a DLT during the first treatment cycle.

P388 leukemia = details: mouse P388 leukemia model; cited from earlier work
[4] = system: refractory solid tumours or lymphomas; assay: Open label dose escalation study of oral sapacitabine b.i.d. for 7 or 14 consecutive days every 21 days; type: in vivo
Procedure: The study was conducted at the Institute for Drug Development, Cancer Therapy and Research Center (CTRC) in San Antonio, Tex. and Fox Chase Cancer Center in Philadelphia, Pa. The primary objective of the study was to evaluate the safety profile of sapacitabine administered twice daily for 14 consecutive days or 7 consecutive days every 21 days.
The study was an open label dose escalation study of oral sapacitabine administered twice daily (b.i.d.) for 7 or 14 consecutive days every 21 days. One treatment cycle was 3 weeks. At least 3 patients were enrolled at each dose level. Dose escalation proceeded if ≦⅓ or ≦ 2/6 patients experienced dose limiting toxicity (DLT) during the first treatment cycle.

[5] = single-dose in rodents, repeat dose up to 3 months in mice and dogs; cited from earlier work
colon cancer = details: model of colon cancer; cited from earlier work
variety of cancers = details: phase I data; cited from earlier work
cytidine deaminase = cytidine deaminase (Homo sapiens, UniProt P32320); details: compared with ara-C; cited from earlier work
cytidine deaminase, sequence (P32320 whole entry, species assumed): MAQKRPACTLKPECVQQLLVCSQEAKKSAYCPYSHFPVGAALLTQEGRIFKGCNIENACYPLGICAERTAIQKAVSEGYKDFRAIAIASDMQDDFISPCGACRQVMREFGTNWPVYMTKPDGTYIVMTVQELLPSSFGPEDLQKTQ

NSCLC = details: 10 mg/m^2 intravenously over 30 minutes every three weeks; cited from earlier work
CTCL = details: cited from earlier work
[6] = 7-day schedule every 21 days, oral
[7] = relapsed or refractory AML and MDS

For `CCCCCCCCCCCCCCCC(=O)Nc1ccn([C@@H]2O[C@H](CO)[C@@H](O)[C@@H]2C#N)c(=O)n1` [sapacitabine, 1-(2-C-cyano-2-deoxy-β-D-arabino-pentofuranosyl)-N^4-palmitoyl cytosine], the recommended dose [1] is listed as 33 mg/m^2, the “antitumour activity, comparison” value [2] is listed as “much more potent antitumour activity than 5′-DFUR and gemcitabine” and the MTD [3, 6] is listed as 375 mg b.i.d. For the same compound, the recommended dose [3, 6] was 325 mg b.i.d, the “patients with reduction in bone marrow blast counts to <5%, AML” value ([3]; AML subgroup of responders) was 9 patients and the “patients with reduction in bone marrow blast counts to <5%, MDS” value ([3]; MDS subgroup of responders) was 2 patients. For the same compound, the “patients with reduction in bone marrow blast counts to <5%” value ([3]; all evaluable patients) was 11 patients of 42 evaluable, the “common non-hematologic adverse events, intensity” value ([3]; all grades, regardless of causality) was “mild to moderate in intensity” and the “CRs with incomplete recovery of platelets” value ([3]; in vivo) was 2 patients. The “complete remissions (CRs)” value ([3]; in vivo) was 2 patients, the “deaths from complications of neutropenic colitis” value ([3]; in vivo) was “One” and the “predominant DLT” value ([3]; in vivo) was “gastrointestinal toxicity”. The “DLT: abdominal pain/small bowel obstruction” value ([3]; number of patients) was 1 n, the “DLT: diarrhea” value ([3]; number of patients) was 3 n and the “DLT: neutropenic colitis” value ([3]; number of patients) was 2 n. For the same compound, the antileukemic activity [3, 7] was “promising antileukemic activity”, the tolerability [3, 7] was “well tolerated” and the “antitumour activity, comparison” value (P388 leukemia) was “much more potent antitumour activity than 5′-DFUR and gemcitabine”. For the same compound, the MTD [4, 6] was 100 mg b.i.d, the “RD (recommended dose)” value [4, 6] was 75 mg b.i.d and the dose limiting toxicity ([4]; 7 and 14 day schedules, 16 patients) was “reversible myelosuppression”. The “best response by investigator assessment” value ([4]; 7 day schedule, squamous cell carcinoma) was “stable disease in one patient”, the recommended dose ([4]; 14 day schedule every 21 days, oral) was 50 mg b.i.d and the “non-hematological toxicities, severity” value ([4]; in vivo) was “mostly mild to moderate”. For the same compound, the major toxicities [5] was “hematopoietic, gastrointestinal, and testicular”, the anticancer activity (colon cancer) was “strong anticancer activity” and the “increasing survival and preventing spread of metastases to the liver, comparison” value (colon cancer) was “superior to either gemcitabine or 5-FU”. The dose limiting toxicity (variety of cancers) was “myelosuppression” and the tolerability (variety of cancers) was “well tolerated”.
In the case of `N#C[C@H]1[C@H](O)[C@@H](CO)O[C@H]1n1ccc(N)nc1=O` [CNDAC, 2′-C-Cyano-2′-deoxy-β-D-arabino-pentafuranosylcytosine], the “substrate of cytidine deaminase” value (cytidine deaminase) is given as “weak substrate”.
For `Nc1ccn([C@@H]2CO[C@H](CO)O2)c(=O)n1` [troxacitabine], the “activity in NSCLC” value (NSCLC) is given as “little activity”.
For `Nc1ccn([C@@H]2O[C@H](CO)[C@@H](O)C2(F)F)c(=O)n1` [Gemcitabine, gemcitabine], the response rate (CTCL) is given as 60-70%.
